{"source": "paper PMC9609861", "about": "“Nebivolol as a Potent TRPM8 Channel Blocker: A Drug-Screening Approach through Automated Patch Clamping and Ligand-Based Virtual Screening” (Membranes, 2022)", "target": "T1, human TRPM8 (Homo sapiens, UniProt Q7Z2W7)", "T1 construct": "expressed in transfected cells", "T1 sequence (Q7Z2W7 whole entry)": "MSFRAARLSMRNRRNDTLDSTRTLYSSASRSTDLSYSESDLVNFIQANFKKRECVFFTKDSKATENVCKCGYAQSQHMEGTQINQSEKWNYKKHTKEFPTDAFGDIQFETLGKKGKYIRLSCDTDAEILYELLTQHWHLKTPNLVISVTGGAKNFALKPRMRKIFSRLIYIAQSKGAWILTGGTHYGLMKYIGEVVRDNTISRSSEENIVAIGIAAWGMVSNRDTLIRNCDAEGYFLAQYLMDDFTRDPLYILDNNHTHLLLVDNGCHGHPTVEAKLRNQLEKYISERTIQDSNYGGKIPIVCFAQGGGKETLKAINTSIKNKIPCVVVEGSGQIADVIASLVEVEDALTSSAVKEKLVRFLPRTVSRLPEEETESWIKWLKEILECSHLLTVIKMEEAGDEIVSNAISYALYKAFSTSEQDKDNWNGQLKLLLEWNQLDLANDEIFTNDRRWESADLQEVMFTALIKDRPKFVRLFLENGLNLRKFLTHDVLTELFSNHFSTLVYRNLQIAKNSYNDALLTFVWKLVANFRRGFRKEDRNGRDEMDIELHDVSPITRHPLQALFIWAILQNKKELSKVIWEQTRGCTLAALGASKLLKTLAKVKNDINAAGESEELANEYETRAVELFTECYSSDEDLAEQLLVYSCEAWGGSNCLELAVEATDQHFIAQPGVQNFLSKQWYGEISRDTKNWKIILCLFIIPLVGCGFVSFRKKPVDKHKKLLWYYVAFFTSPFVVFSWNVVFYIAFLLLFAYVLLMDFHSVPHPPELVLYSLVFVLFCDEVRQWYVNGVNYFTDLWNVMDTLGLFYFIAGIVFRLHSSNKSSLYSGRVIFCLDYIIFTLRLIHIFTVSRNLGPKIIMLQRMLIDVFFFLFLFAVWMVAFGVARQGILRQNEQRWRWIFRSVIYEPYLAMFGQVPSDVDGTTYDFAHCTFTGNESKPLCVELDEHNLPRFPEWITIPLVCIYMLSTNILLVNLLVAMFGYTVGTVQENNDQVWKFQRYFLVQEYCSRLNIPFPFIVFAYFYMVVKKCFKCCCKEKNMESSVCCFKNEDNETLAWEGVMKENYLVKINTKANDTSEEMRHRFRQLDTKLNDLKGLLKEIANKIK", "assay": "Automated patch clamp (IonFlux 16) of menthol-evoked TRPM8 currents in HEK293 cells stably expressing human TRPM8", "assay_type": "cell-based", "description": "HEK293 cells, stably expressing human TRPM8 (GenBank number NM_024080), were cultured in T75 tissue culture flasks using Dulbecco’s modified Eagle medium (Euroclone, Pero, Italy), supplemented with 10% FBS (Euroclone, Pero, Italy) plus Geneticin (Sigma-Aldrich, St. Louis, MI, USA) 800 μg/mL at 37° C, in a humidified 5% CO2 atmosphere. The cells were maintained until they reached 70~80% confluency. Prior to use, the cells were washed twice with Ca^2+ and Mg^2+ free PBS (Euroclone, Pero, Italy), subsequently detached using Accutase (Euroclone, Pero, Italy), and kept in suspension using CHO-SFM-II medium (Gibco, by Thermo Fisher Scientific, Carlsbad, CA, USA). The cells were then resuspended in the external solution after a centrifugation at 1000 rpm for 2 min. Single-cells suspension, with a final concentration of 3–5 million cells/mL, was required for the automated patch clamp electrophysiology procedure.\nWe performed automated patch clamp recordings by using the IonFlux 16 system (Fluxion Biosciences, Alameda, CA, USA). The procedure includes four automated phases—prime, trap, break, and data acquisition—in the whole-cells voltage clamp. The cells were voltage clamped at a holding potential of −60 mV, stepped to −100 mV, ramped to +100 mV in 200 ms, and finally stepped back to −60 mV. Voltage command was executed every 5 s, and currents were recorded with a sampling rate of 5 kHz. […] The interval range between each application was 90 s, and intervals included washing cells with an external solution-containing vehicle. However, the duration of each application was adjusted based on each drug’s lipophilicity and kinetic of inhibition. For leakage subtraction, leakage was measured by applying a short 20 mV pulse (typically from −80 mV to −100 mV) at the beginning of each sweep to measure the current difference. By assuming linear leakage and subtracting proportional currents from each of the different voltage command segments, the software performs automatic leakage subtraction. […] The extracellular solution contained 140 mM NaCl, 4 mM KCl, 1 mM MgCl2, 10 mM glucose, and 10 mM HEPES, pH 7.4 with NaOH and 310 mOsm. We removed Ca^2+ from the external solution to avoid the Ca^2+-dependent desensitization of TRPM8. The intracellular solution contained the following (mM): 60 CsCl, 70 CsF, 5 Na2ATP, 10 HEPES, and 10 EGTA, pH 7.2 with CSOH and 295 mOsm. All recordings were performed at a temperature of 20 ± 1 °C.\nAll compounds were obtained from Sigma-Aldrich. Stock solutions were prepared in 50 mM of dimethyl sulfoxide (DMSO) and stored at −20° C.\nThe analysis of the data was carried out using the ‘data analyzer software’ (Data Analyzer v. 5.0 (beta), Fluxion Biosciences, Alameda, CA, USA), Microsoft Excel 365, and the Prism 9.0 software (GraphPad Software Inc., San Diego, CA, USA). The average current density of the last three recordings at +80 mV in each application period was used as the current amplitude.\nIC50 and EC50 were calculated by fitting the four-parameter Hill equation using GraphPad Prism.\nFour-parameter Hill equation: f(x)=Imin+(Imax−Imin/1+(C50/x)^h)\nData are expressed as the mean ± standard deviation (SD).", "key": {"[1]": {"details": "HEK293; read-out: Average Percentage Inhibition at 10 µM"}, "[2]": {"details": "read-out: IC50, inhibition of menthol-induced TRPM8 current"}, "[3]": {"details": "at concentrations higher than 50 µM"}, "[4]": {"details": "at concentrations higher than IC50, prolonged washing, data not shown"}}, "note": "Read-outs that look alike come from different tables or passages of the source."}
{"smiles": "NCC1(CC(=O)O)CCCCC1", "note": "[Gabapentin, gabapentin]", "values": [{"measurement": "inhibition at 10 µM", "setting": "HEK293, read-out: Average Percentage Inhibition at 10 µM", "result": 0, "unit": "%"}]}
{"smiles": "CCCC(=O)Nc1ccc(OCC(O)CNC(C)C)c(C(C)=O)c1", "note": "(stereo not drawn) [Acebutolol, acebutolol]", "values": [{"measurement": "inhibition at 10 µM", "setting": "[1]", "result": 0, "unit": "%"}]}
{"smiles": "NC(=O)N1c2ccccc2CC(=O)c2ccccc21", "note": "[Oxcarbazepine, oxcarbazepine]", "values": [{"measurement": "inhibition at 10 µM", "setting": "[1]", "result": 0, "unit": "%"}]}
{"smiles": "CCCCNc1ccc(C(=O)OCCN(C)C)cc1", "note": "[Tetracaine, tetracaine]", "values": [{"measurement": "inhibition at 10 µM", "setting": "[1]", "result": 0, "unit": "%"}]}
{"smiles": "CC(C)(C)NCC(O)COc1cccc2c1CC(O)C(O)C2", "note": "(stereo not drawn) [Nadolol, nadolol]", "values": [{"measurement": "inhibition at 10 µM", "setting": "[1]", "result": 0, "unit": "%"}]}
{"smiles": "NC(=O)c1cn(Cc2c(F)cccc2F)nn1", "note": "[Rufinamide, rufinamide]", "values": [{"measurement": "inhibition at 10 µM", "setting": "[1]", "result": 0, "unit": "%"}]}
{"smiles": "NC(=O)N1c2ccccc2C=Cc2ccccc21", "note": "[Carbamazepine, carbamazepine]", "values": [{"measurement": "inhibition at 10 µM", "setting": "[1]", "result": 0, "unit": "%"}]}
{"smiles": "COc1ccccc1OCC(O)CN1CCN(CC(=O)Nc2c(C)cccc2C)CC1", "note": "(stereo not drawn) [Ranolazine, ranolazine]", "values": [{"measurement": "inhibition at 10 µM", "setting": "[1]", "result": 0, "unit": "%"}]}
{"smiles": "CCCNCC(O)COc1ccccc1C(=O)CCc1ccccc1", "note": "(stereo not drawn) [Propafenone, propafenone]", "values": [{"measurement": "inhibition at 10 µM", "setting": "[1]", "result": 26, "unit": "%"}, {"measurement": "Block of outward TRPM8 currents induced by menthol", "setting": "below 50 µM", "result": "significant blocking capacity"}, {"measurement": "IC50", "setting": "[2]", "result": "16.8 ± 5", "unit": "µM"}]}
{"smiles": "O=C1NC(=O)C(c2ccccc2)(c2ccccc2)N1", "note": "[Phenytoin, phenytoin]", "values": [{"measurement": "inhibition at 10 µM", "setting": "[1]", "result": 0, "unit": "%"}, {"measurement": "Block of outward TRPM8 currents induced by menthol", "setting": "[3]", "result": "partial block"}]}
{"smiles": "Nc1nnc(-c2cccc(Cl)c2Cl)c(N)n1", "note": "[Lamotrigine, lamotrigine]", "values": [{"measurement": "inhibition at 10 µM", "setting": "[1]", "result": 0, "unit": "%"}]}
{"smiles": "Cc1cccc(C)c1OCC(C)N", "note": "(stereo not drawn) [Mexiletine, mexiletine]", "values": [{"measurement": "inhibition at 10 µM", "setting": "[1]", "result": 0, "unit": "%"}]}
{"smiles": "OC(CNCC(O)C1CCc2cc(F)ccc2O1)C1CCc2cc(F)ccc2O1", "note": "(stereo not drawn) [Nebivolol, nebivolol]", "values": [{"measurement": "inhibition at 10 µM", "setting": "[1]", "result": 100, "unit": "%"}, {"measurement": "Reversibility of the inhibiting effect on washing", "setting": "[4]", "result": "irreversible inhibiting effect"}, {"measurement": "Inhibitory effect of nebivolol compared with carvedilol", "setting": "electrophysiological data", "result": "ten times stronger"}, {"measurement": "IC50", "setting": "[2]", "result": "0.97 ± 0.15", "unit": "µM"}, {"measurement": "Blocking effect on TRPM8 menthol-evoked currents", "setting": "β-blocker screen", "result": "showed a blocking effect"}]}
{"smiles": "Nc1nc2ccc(OC(F)(F)F)cc2s1", "note": "[Riluzole, riluzole]", "values": [{"measurement": "inhibition at 10 µM", "setting": "[1]", "result": 0, "unit": "%"}]}
{"smiles": "COCCc1ccc(OCC(O)CNC(C)C)cc1", "note": "(stereo not drawn) [Metoprolol, metoprolol]", "values": [{"measurement": "inhibition at 10 µM", "setting": "[1]", "result": 0, "unit": "%"}]}
{"smiles": "Cc1cccc(COc2ccccc2C(=O)N(CCCN)Cc2cccs2)c1.Cl", "note": "[AMTB, N-(3-Aminopropyl)-2-[(3-methylphenyl)methoxy]-N-(2-thienylmethyl)benzamide hydrochloride]", "values": [{"measurement": "Block of menthol-activated currents", "setting": "1 µM AMTB", "result": "fully blocked"}]}
{"smiles": "COc1ccccc1OCCNCC(O)COc1cccc2[nH]c3ccccc3c12", "note": "(stereo not drawn) [Carvedilol, carvedilol]", "values": [{"measurement": "inhibition at 10 µM", "setting": "[1]", "result": 57, "unit": "%"}, {"measurement": "Reversibility of the inhibiting effect on washing", "setting": "[4]", "result": "irreversible inhibiting effect"}, {"measurement": "IC50", "setting": "[2]", "result": "9.1 ± 0.6", "unit": "µM"}, {"measurement": "Blocking effect on TRPM8 menthol-evoked currents", "setting": "β-blocker screen", "result": "showed a blocking effect"}]}
{"smiles": "CC(C)NCC(O)COc1ccc(CC(N)=O)cc1", "note": "(stereo not drawn) [Atenolol, atenolol]", "values": [{"measurement": "inhibition at 10 µM", "setting": "[1]", "result": 0, "unit": "%"}]}
{"smiles": "O=C(NCC1CCCCN1)c1cc(OCC(F)(F)F)ccc1OCC(F)(F)F", "note": "(stereo not drawn) [Flecainide, flecainide]", "values": [{"measurement": "inhibition at 10 µM", "setting": "[1]", "result": 0, "unit": "%"}, {"measurement": "Block of outward TRPM8 currents induced by menthol", "setting": "[3]", "result": "partial block"}]}
{"smiles": "CC(C)NCC(O)COc1cccc2ccccc12", "note": "(stereo not drawn) [Propranolol, propranolol]", "values": [{"measurement": "inhibition at 10 µM", "setting": "[1]", "result": 12, "unit": "%"}, {"measurement": "IC50", "setting": "[2]", "result": "45 ± 7", "unit": "µM"}, {"measurement": "Blocking effect on TRPM8 menthol-evoked currents", "setting": "β-blocker screen", "result": "showed a blocking effect"}]}
